pIC50: −log10 of the molar value. Where two headings read alike, the source gives them in different places.

In this assay the target is T1, DPD (Rattus norvegicus, UniProt O89000).
T1 construct: the obtained supernatant was used as a DPD enzyme solution or an OPRT enzyme solution; from tissue; host or cells: liver of 8-week old SD rat; 105,000 g supernatant of homogenate
T1 sequence (O89000 1-1025): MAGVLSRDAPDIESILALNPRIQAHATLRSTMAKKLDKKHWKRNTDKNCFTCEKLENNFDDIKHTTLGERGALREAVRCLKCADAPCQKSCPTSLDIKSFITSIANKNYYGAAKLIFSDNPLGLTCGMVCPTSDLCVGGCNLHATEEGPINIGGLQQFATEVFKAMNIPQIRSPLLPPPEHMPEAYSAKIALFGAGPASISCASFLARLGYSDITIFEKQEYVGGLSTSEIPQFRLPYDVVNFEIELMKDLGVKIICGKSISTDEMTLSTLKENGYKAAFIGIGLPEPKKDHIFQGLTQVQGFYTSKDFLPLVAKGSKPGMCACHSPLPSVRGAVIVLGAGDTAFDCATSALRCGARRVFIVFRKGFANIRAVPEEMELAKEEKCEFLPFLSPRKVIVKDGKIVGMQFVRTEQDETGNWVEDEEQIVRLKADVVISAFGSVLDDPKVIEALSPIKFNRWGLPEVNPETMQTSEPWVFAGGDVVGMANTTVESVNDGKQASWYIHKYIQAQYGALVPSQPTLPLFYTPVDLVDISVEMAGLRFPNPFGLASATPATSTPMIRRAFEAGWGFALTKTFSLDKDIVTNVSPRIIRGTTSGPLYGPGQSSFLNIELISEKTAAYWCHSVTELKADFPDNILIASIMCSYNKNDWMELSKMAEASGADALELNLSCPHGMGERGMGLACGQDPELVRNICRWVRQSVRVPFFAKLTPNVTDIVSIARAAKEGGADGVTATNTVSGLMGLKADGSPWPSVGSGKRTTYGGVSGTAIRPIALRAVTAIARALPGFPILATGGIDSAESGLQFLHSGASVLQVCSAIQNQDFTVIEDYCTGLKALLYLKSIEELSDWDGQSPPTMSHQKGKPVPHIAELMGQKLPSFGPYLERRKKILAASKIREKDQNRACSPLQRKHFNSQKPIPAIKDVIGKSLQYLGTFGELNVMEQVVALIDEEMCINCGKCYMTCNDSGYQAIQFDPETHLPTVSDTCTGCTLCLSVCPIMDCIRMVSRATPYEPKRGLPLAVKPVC
As to the kind of experiment: DPD inhibitory action in vitro (enzyme reaction, tritium-labeled 5-FU as substrate). The assay is classed as biochemical. As to the method:
The resulting product was diluted to concentrations of 1 mM, 100 μM, 10 μM, and 1 μM with a 10 mM potassium phosphate buffer solution (pH 6.0), thereby obtaining Test Liquids 1. The obtained Test Liquids 1 were separately added to the enzyme reaction solution described below to give final concentrations of 200 μM, 20 μM, 2 μM, and 0.2 μM. • (b) Test liquid preparation (2): As a DPD inhibitor, 5-chloro-2,4-dihydroxypyridine (CDHP; gimeracil) was dissolved to a concentration of 10 mM in a 10 mM potassium phosphate buffer solution (pH 6.0). The resulting product was diluted to concentrations of 1 mM, 100 μM, 10 μM, and 1 μM, thereby obtaining Test Liquids 2. The obtained Test Liquids 2 were separately added to the enzyme reaction solution to give final concentrations of 200 μM, 20 μM, 2 μM, and 0.2 μM. • (c) Test liquid preparation (3): As an OPRT inhibitor, citrazinic acid (Citra. A.) was dissolved to a concentration of 10 mM in 20 mM trishydroxyaminomethane-hydrochloric buffer solution (pH 8.0). Thereafter, the resulting product was diluted to concentrations of 1 mM, 100 μM, and 10 μM with a 10 mM potassium phosphate buffer solution, thereby obtaining Test Liquids (3). The obtained Test Liquids 3 were separately added to the enzyme reaction solution to give final concentrations of 200 μM, 20 μM, and 2 μM. • (d) Preparation of enzyme solution: The liver of an 8-week old SD rat was used as a DPD enzyme source, while human tumor cells that had been transplanted into a nude mouse and proliferated therein were used as an OPRT enzyme source. Specifically, immediately after a rat liver or successively-transplanted human tumor cells were extracted, a 50-mM tris-hydrochloric acid buffer solution (pH 8.0) containing 0.25 M saccharose, 5 mM magnesium chloride, and 1 mM dithreitol was added thereto to a concentration of 25% (w/v) and homogenized. Thereafter, ultracentrifugation was performed at 105,000 g for 60 minutes, and the obtained supernatant was used as a DPD enzyme solution or an OPRT enzyme solution. • (e) Enzyme reaction: A DPD enzyme reaction was carried out in accordance with the method of Tatsumi et al. (Gann, 78: 748-755 (1987)) using 5-FU labeled with tritium as a substrate. An OPRT enzyme reaction was carried out in accordance with the method of Shirasaka et al. (Cancer Res., 53: 4004-4009 (1993)) using 5-FU labeled with tritium as a substrate. Then, the activity of a control group (with no test compound) and test compound groups was measured. The percent inhibition of the test compound relative to DPD or OPRT was calculated using the following formula: [1-(the enzyme activity with the test compound/the enzyme activity of the control group)]×100(%).
The resulting product was diluted to concentrations of 1 mM, 100 μM, 10 μM, and 1 μM with a 10 mM potassium phosphate buffer solution (pH 6.0), thereby obtaining Test Liquids 1. The obtained Test Liquids 1 were separately added to the enzyme reaction solution described below to give final concentrations of 200 μM, 20 μM, 2 μM, and 0.2 μM. • (b) Preparation of enzyme solution: The liver of an 8-week old SD rat was used as a DPD enzyme source, while human tumor cells that had been transplanted into a nude mouse and proliferated therein were used as an OPRT enzyme source. Specifically, immediately after a rat liver or successively-transplanted human tumor cells were extracted, a 50-mM tris-hydrochloric acid buffer solution (pH 8.0) containing 0.25 M saccharose, 5 mM magnesium chloride, and 1 mM dithreitol was added thereto to a concentration of 25% (w/v) and homogenized. Thereafter, ultracentrifugation was performed at 105,000 g for 60 minutes, and the obtained supernatant was used as a DPD enzyme solution or an OPRT enzyme solution. • (c) Enzyme reaction: A DPD enzyme reaction was carried out in accordance with the method of Tatsumi et al. (Gann, 78: 748-755 (1987)) using 5-FU labeled with tritium as a substrate. […]

The mark [1] stands for this setting: 0.2 μM, Table 2, read-out: DPD Inhibition (%).
The mark [2] stands for this setting: 2 μM, Table 2, read-out: DPD Inhibition (%).

The inhibition is the relative decrease from the control value, in per cent. Turning to `CCOCn1cc(F)c(=O)n(C(=O)c2cccc(C(=O)Oc3cc(OC(=O)c4cc(O)nc(O)c4)c(Cl)cn3)c2)c1=O` [Compound I-2, 3-{3-[4-(2,6-dihydroxyisonicotinoyloxy)-5-chloro-2-pyridyloxycarbonyl]benzoyl}-1-ethoxymethyl-5-fluorouracil], the “DPD Inhibitory Activity: Activity” value (Conc. 0.2 μM, Table 1) was 0.613 nmol/mL/min; the “DPD Inhibitory Activity: Activity” value (Conc. 2 μM, Table 1) came to 0.157 nmol/mL/min; the “DPD Inhibitory Activity: Activity” value (Conc. 20 μM, Table 1) was 0.075 nmol/mL/min; the “DPD Inhibitory Activity: Activity” value (Conc. 200 μM, Table 1) came to 0.100 nmol/mL/min. Further, the inhibition at 0.2 µM (Conc. 0.2 μM, Table 1, read-out: DPD Inhibitory Activity: Inhibition) worked out at 39.2%. For the same compound, the inhibition at 2 µM (Conc. 2 μM, Table 1, read-out: DPD Inhibitory Activity: Inhibition) turned out to be 84.4%. Where the note is “Conc. 20 μM, Table 1”, this compound showed an inhibition at 20 µM of 92.6%. For the same compound, the inhibition at 200 µM (Conc. 200 μM, Table 1) was 90%.

Consider `CCOCn1cc(F)c(=O)n(C(=O)c2cccc(C(=O)Oc3cc(OC(=O)c4cc(OC(=O)C5CCCC5)nc(OC(=O)C5CCCC5)c4)c(Cl)cn3)c2)c1=O` [Compound I-9, 3-{3-[4-(2,6-dicyclopentanecarbonyloxyisonicotinoyloxy)-5-chloro-2-pyridyloxycarbonyl]benzoyl}-1-ethoxymethyl-5-fluorouracil], for which, under setting [1], the inhibition at 0.2 µM was 45.7%. Moreover, the inhibition at 2 µM under setting [2] came out at 74.6%.

On to `CCOCn1cc(F)c(=O)n(C(=O)c2cccc(C(=O)Oc3cc(OC(=O)c4cc(OC(C)=O)nc(OC(C)=O)c4)c(Cl)cn3)c2)c1=O` [Compound I-10, 3-{3-[4-(2,6-diacetyloxyisonicotinoyloxy)-5-chloro-2-pyridyloxycarbonyl]benzoyl}-1-ethoxymethyl-5-fluorouracil], for which, under setting [1], the inhibition at 0.2 µM stood at 43.9%. For the same compound, the inhibition at 2 µM under setting [2] is 77.2%.

One may read the pIC50 as the negative decadic logarithm of the IC50, by convention in mol/L. `CCOCn1cc(F)c(=O)n(C(=O)c2cccc(C(=O)Oc3cc(OC(=O)c4cc(OC(=O)CC)nc(OC(=O)CC)c4)c(Cl)cn3)c2)c1=O` [Compound I-11, 3-{3-[4-(2,6-dipropionyloxyisonicotinoyloxy)-5-chloro-2-pyridyloxycarbonyl]benzoyl}-1-ethoxymethyl-5-fluorouracil]: the pIC50 (5-FU as substrate, Test Example 4, read-out: IC50 of DPD activity inhibition) was about 6.30. Besides, the “DPD Inhibitory Activity: Activity” value came to 0.285 nmol/mL/min (Conc. 0.2 μM, Table 5); 0.216 nmol/mL/min (Conc. 2 μM, Table 5); 0.081 nmol/mL/min (Conc. 20 μM, Table 5). Further, where the note is “Conc. 0.2 μM, Table 5, read-out: DPD Inhibitory Activity: Inhibition”, the inhibition at 0.2 µM is 56.8%. Moreover, under “Conc. 2 μM, Table 5, read-out: DPD Inhibitory Activity: Inhibition”, the inhibition at 2 µM amounted to 67.2%. Also, for the setting “Conc. 20 μM, Table 5”, at 20 µM the inhibition was 87.7%.
